The source of these data is US12441718B2, “Selective angiotensin II compounds” (VICORE PHARMA AB, priority 2021, dated 2025).

One series deals with CYP3A4 (Homo sapiens, UniProt P08684). Kind of series: CYP inhibition in human liver microsomes (Eurofins ITEMG232), midazolam substrate. Type of series: in vitro ADME. More on the design: isoform-specific substrates incubated with human liver microsomes; tissue Eurofins ITEMG232 (protocol number); host or cells: human liver microsomes. The settings on record: human, probe midazolam, read-out: CYP3A4 midazolam Inh %. (Liver microsomes are vesicles of endoplasmic reticulum, rich in cytochrome P450 enzymes.)
Chain of CYP3A4 (P08684 whole entry, canonical isoform): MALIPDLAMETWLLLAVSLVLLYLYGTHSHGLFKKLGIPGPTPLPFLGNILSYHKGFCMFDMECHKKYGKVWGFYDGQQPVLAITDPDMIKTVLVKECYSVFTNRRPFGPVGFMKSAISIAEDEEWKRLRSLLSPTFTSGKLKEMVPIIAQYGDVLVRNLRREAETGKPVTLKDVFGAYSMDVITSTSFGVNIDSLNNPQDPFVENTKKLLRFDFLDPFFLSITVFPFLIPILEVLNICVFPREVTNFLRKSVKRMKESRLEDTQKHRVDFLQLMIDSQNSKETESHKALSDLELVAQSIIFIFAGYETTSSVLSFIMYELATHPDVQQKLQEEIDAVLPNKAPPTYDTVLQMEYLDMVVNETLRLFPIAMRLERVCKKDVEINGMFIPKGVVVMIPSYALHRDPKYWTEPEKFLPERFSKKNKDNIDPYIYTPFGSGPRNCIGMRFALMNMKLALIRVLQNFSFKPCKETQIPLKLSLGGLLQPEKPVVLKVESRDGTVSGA

The target of series [1] is T1, human recombinant AT1 receptor (Homo sapiens, UniProt P30556).
T1 construct: purchased Eurofins ITEM24 (protocol number)
T1 sequence (P30556 1-359): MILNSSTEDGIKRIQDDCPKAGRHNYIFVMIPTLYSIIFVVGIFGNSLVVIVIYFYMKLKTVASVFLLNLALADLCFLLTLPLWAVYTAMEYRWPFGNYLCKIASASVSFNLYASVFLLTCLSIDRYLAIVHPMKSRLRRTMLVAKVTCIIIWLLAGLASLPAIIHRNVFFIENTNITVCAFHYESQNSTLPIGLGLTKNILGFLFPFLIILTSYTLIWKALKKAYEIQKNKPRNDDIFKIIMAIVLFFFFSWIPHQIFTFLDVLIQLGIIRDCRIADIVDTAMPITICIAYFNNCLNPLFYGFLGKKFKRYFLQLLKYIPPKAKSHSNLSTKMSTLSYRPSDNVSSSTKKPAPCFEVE
The series can be described thus: Binding to AT1 receptor, radiometric scintillation assay (Eurofins ITEM24). To be noted: test compounds at 1 and 10 μM, ligand 125I(sar1,Ile8)-AT-II; * rows = mean of runs.

A further series concerns the target CYP2C9 (Homo sapiens, UniProt P11712). The series can be described thus: CYP inhibition in human liver microsomes (Eurofins ITEMG232). Format: in vitro ADME. More on the design: isoform-specific substrates incubated with human liver microsomes; tissue Eurofins ITEMG232 (protocol number); host or cells: human liver microsomes. To be noted: human, probe diclofenac, substrate diclofenac, read-out: CYP2C9 Inh %.

The target in a further series is T2, CYP2C8 (Homo sapiens, UniProt P10632).
T2 construct: isoform-specific substrates incubated with human liver microsomes; tissue Eurofins ITEMG232 (protocol number); host or cells: human liver microsomes
T2 sequence (P10632 1-490): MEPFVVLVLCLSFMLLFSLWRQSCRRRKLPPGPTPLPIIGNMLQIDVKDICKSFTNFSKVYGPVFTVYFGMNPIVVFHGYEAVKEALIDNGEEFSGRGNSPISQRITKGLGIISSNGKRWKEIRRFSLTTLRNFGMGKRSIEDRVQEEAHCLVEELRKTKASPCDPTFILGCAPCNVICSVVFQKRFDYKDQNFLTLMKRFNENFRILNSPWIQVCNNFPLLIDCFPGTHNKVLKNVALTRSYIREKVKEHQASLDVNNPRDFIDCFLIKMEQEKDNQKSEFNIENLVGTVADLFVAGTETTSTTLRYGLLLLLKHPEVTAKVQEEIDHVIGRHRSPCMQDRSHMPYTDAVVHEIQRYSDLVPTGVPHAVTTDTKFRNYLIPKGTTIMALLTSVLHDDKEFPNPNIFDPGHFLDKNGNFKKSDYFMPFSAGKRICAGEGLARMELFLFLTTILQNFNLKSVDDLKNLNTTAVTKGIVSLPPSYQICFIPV
The description is as above. Format: in vitro ADME. The settings on record: human, probe paclitaxel and amodiaquine, substrate paclitaxel and amodiaquine, read-out: CYP2C8 Inh %.

Another series concerns the target T3, CYP2D6 (Homo sapiens, UniProt P10635).
T3 construct: isoform-specific substrates incubated with human liver microsomes; tissue Eurofins ITEMG232 (protocol number); host or cells: human liver microsomes
The description is as above. The settings on record: probe dextromethorphan, substrate dextromethorphan, read-out: CYP2D6 Inh %. Type of series: in vitro ADME.

For a further series, the target named is T4, CYP1A2 (Homo sapiens, UniProt P05177).
T4 construct: isoform-specific substrates incubated with human liver microsomes; tissue Eurofins ITEMG232 (protocol number); host or cells: human liver microsomes
T4 sequence (P05177 whole entry, canonical isoform): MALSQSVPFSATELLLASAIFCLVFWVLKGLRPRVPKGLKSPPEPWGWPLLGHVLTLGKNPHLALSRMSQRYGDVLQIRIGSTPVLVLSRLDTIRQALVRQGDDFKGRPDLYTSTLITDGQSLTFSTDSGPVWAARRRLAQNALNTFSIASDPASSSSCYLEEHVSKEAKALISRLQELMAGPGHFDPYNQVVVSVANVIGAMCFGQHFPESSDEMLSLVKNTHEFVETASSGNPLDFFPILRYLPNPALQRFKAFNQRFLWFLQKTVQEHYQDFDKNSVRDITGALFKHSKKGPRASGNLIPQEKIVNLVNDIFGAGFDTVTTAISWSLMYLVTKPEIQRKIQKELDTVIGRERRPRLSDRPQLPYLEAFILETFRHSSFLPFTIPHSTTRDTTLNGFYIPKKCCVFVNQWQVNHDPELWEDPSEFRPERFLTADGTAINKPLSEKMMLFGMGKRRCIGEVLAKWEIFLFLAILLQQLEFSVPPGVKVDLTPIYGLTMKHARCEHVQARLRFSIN
Kind of series: in vitro. The settings on record: human, microsomes, human liver microsomes, substrate phenacetin, read-out: CYP1A2 Inh %. Type of series: in vitro ADME.

The target of the next series is T5, CYP2B6 (Homo sapiens, UniProt P20813).
T5 construct: isoform-specific substrates incubated with human liver microsomes; tissue Eurofins ITEMG232 (protocol number); host or cells: human liver microsomes
T5 sequence (P20813 1-491): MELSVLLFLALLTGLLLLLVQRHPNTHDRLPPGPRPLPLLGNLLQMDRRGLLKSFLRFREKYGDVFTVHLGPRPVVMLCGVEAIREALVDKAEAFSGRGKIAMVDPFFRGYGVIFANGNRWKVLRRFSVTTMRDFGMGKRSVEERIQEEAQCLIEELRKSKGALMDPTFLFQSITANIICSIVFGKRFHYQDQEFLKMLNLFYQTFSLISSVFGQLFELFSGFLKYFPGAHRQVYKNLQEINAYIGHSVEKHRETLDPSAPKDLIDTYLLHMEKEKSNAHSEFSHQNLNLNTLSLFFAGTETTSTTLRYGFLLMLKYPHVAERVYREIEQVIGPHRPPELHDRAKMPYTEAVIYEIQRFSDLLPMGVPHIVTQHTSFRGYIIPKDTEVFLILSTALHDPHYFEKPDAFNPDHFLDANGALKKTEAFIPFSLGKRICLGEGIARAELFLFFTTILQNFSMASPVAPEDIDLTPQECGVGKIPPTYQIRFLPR
Kind of series: CYP inhibition in human liver microsomes (Eurofins ITEMG232). Type of series: in vitro ADME. To be noted: probe bupropion, substrate bupropion, read-out: CYP2B6 Inh %.

A further series concerns CYP3A4&5. The series can be described thus: in vitro. To be noted: human, human liver microsomes, probe testosterone.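 Also: Read-out is the metabolite generated from the probe substrate, quantified as HPLC-MS/MS peak area once incubation ends.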
Series [2] is described as follows: Metabolic stability in pooled human liver microsomes. Type of series: in vitro ADME. The settings on record: pooled human liver microsomes 0.5 mg/mL, 1 μM test compound, 37° C., * rows = mean of two runs; for half-life at 1 μM: human, pooled human liver microsomes. An outline of the steps:
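Pooled human liver microsomes (0.5 mg/mL in PBS) preincubated ±1 mM NADPH at 37° C; test compound added at 10 min to 1 μM final. Samples at 0, 5, 15 and 60 min quenched in acetonitrile, parent quantified by LC-MS/MS against a standard curve (terfenadine internal standard). Initial metabolic rate calculated with and without NADPH.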

Series [3] concerns the target T6, human recombinant AT2 receptor (Homo sapiens, UniProt P50052).
T6 construct: purchased Eurofins ITEM26 (protocol number)
T6 sequence (P50052 1-363): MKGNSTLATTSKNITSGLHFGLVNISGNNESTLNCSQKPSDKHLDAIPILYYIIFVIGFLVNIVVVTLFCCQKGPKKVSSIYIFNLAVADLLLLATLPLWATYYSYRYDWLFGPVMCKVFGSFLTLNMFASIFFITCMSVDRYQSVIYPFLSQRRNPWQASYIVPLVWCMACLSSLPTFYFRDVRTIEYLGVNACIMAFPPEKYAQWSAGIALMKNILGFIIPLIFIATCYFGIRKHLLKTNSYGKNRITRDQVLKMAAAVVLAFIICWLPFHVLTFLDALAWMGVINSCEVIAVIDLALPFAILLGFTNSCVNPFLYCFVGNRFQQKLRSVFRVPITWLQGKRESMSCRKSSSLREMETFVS
Kind of series: Binding to AT2 receptor, radiometric scintillation assay (Eurofins ITEM26). To be noted: for Ki: seven-point dose-response curve.

In the next series the target is T7, CYP2C19 (Homo sapiens, UniProt P33261).
T7 construct: isoform-specific substrates incubated with human liver microsomes; tissue Eurofins ITEMG232 (protocol number); host or cells: human liver microsomes
T7 sequence (P33261 whole entry, canonical isoform): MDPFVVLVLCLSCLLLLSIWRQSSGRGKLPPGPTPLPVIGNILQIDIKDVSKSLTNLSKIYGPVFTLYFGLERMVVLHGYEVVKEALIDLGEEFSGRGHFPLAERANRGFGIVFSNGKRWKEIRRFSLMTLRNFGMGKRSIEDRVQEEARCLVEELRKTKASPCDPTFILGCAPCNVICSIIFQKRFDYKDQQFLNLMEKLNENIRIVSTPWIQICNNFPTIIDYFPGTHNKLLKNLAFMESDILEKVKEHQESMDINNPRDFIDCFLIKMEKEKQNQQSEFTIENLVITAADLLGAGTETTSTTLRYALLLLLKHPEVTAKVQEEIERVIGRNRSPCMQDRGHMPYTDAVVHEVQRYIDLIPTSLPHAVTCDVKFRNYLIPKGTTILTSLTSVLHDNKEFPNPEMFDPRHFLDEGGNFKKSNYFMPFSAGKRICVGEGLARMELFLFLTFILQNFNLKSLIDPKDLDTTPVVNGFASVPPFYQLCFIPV
The series can be described thus: CYP inhibition in human liver microsomes (Eurofins ITEMG232). Format: in vitro ADME. The settings on record: human, probe omeprazole, substrate omeprazole, read-out: CYP2C19 Inh %.

Setting [4] is: with 1 mM NADPH, read-out: T1/2, + NaDPH.
Setting [5] is: without NADPH, read-out: T1/2, no NaDPH.
Setting [6] is: ligand 125I CGP 42112A, * rows = mean of runs.
The mark [7] stands for this setting: test compounds at 1, 10, 100 and 1000 nM, ligand 125I CGP 42112A, * rows = mean of runs, read-out: AT2 GraFit IC50.

“And” between values parts separate entries of the source, which are not always exact repeats. Equal entries are not always repeated. Where two headings read alike, the source gives them in different places.

T3 sequence (P10635 whole entry, canonical isoform): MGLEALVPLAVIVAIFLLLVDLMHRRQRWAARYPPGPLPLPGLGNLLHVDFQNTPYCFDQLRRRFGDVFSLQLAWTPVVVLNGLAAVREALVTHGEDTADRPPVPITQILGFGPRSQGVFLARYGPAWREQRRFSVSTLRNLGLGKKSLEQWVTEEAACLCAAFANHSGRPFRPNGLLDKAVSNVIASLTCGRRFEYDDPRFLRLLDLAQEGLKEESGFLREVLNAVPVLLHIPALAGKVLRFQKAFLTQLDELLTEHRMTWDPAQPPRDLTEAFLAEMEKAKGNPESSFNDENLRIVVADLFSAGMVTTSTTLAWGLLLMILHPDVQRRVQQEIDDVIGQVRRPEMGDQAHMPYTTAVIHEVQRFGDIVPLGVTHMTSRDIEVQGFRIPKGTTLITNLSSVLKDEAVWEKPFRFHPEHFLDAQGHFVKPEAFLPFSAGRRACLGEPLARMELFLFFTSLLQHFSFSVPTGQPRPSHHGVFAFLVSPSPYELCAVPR
Chain of CYP2C9 (P11712 whole entry, canonical isoform): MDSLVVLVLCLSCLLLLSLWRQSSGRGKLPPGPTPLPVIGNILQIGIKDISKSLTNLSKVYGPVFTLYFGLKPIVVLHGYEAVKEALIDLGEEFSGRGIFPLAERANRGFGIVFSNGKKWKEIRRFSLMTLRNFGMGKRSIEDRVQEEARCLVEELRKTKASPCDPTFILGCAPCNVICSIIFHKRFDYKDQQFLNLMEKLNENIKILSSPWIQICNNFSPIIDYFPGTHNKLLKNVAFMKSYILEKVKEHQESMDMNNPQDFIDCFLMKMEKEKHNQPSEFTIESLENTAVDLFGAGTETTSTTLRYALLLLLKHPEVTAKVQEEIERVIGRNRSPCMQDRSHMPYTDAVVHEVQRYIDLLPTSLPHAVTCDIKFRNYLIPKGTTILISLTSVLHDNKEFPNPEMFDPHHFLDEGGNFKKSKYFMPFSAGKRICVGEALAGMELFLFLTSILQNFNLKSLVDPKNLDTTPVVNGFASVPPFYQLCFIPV
Description for CYP1A2: The following substrates were used; CYP1A phenacetin, CYP2B36 bupropion, CYP2C8 paclitaxel and amodiaquine, CYP2C9 diclofenac, CYP2C19 omeprazole, CYP2D6 dextromethorphan, CYP3A midazolam and testosterone.
At the end of the incubation, the formation of metabolite was monitored by HPLC-MS/MS as the peak area response.

Regarding `CC(C)Cc1ccc(S(=O)(=O)Nc2ncc(F)cn2)c(-c2ccc(Cn3ccnc3C(C)(C)C)cc2)c1` [Example 3, 4′-((2-(tert-Butyl)-1H-imidazol-1-yl)methyl)-N-(5-fluoropyrimidin-2-yl)-5-isobutyl-[1,1′-biphenyl]-2-sulfonamide], the inhibition at 10 µM at CYP3A4 is 49.8%; on CYP2C9, 4%; on CYP2C8, 89.2%; on CYP2D6 it was 17.2%; at CYP1A2 it was -33.8%; on CYP2B6, -0.5%. The values for the inhibition at 10 µM in the series with CYP3A4&5 and on CYP2C19 were 26.8% and 36.9%, respectively. Also, the half-maximal inhibitory concentration (IC50) worked out at 14300 nM in series [1] and 4.79 nM in [3] (setting [7]). For the same molecule, the half-life at 1 μM in series [2] (setting [4]) and in [2] (setting [5]) was over 1 h throughout. Besides, the Ki in [3] (setting [6]) worked out at 2.4 nM.
Regarding `CC(C)Cc1ccc(S(=O)(=O)Nc2ncc(C(F)(F)F)cn2)c(-c2ccc(Cn3ccnc3C(C)(C)C)cc2)c1` [Example 4, 4′-((2-(tert-Butyl)-1H-imidazol-1-yl)methyl)-5-isobutyl-N-(5-(trifluoromethyl)pyrimidin-2-yl)-[1,1′-biphenyl]-2-sulfonamide], the inhibition at 10 µM on CYP3A4 was 33.8%; at CYP2C9 it was 68.3%; at CYP2C8 it was 94.3%; at CYP2D6 it was 21.5%; at CYP1A2 it was 19.5%; at CYP2B6 it was 36.2%. Moreover, the inhibition at 10 µM with CYP3A4&5 is 1.5%; on CYP2C19, 62.3%. Also, the IC50 in series [1] turned out to be 6200 nM; in [3] (setting [7]), 12.4 nM. Besides, the half-life at 1 μM in [2] (setting [4]) and in [2] (setting [5]) was over 1 h each time. Also, in series [3] (setting [6]), the Ki amounted to 6.18 nM.
For the molecule `CC(C)Cc1ccc(S(=O)(=O)Nc2ccsn2)c(-c2ccc(Cn3ccnc3C(C)(C)C)c(F)c2)c1` [Example 32, 4′-((2-(tert-Butyl)-1H-imidazol-1-yl)methyl)-3′-fluoro-5-isobutyl-N-(isothiazol-3-yl)-[1,1′-biphenyl]-2-sulfonamide], the IC50 in series [1] was 14100 nM and 8500 nM and 11300 nM; in series [3] (setting [7]) it was 1.84 nM. The half-life at 1 μM was 0.233 h in series [2] (setting [4]) and over 1 h in series [2] (setting [5]). Moreover, the “T1/2, + NaDPH” value was determined as 0.217 h in [2] (with 1 mM NADPH) and 0.225 h in series [2] (with 1 mM NADPH, listed as Example 32*). The Ki in series [3] (setting [6]) is 0.92 nM.
In the case of `COc1cc(NS(=O)(=O)c2ccc(CC(C)C)cc2-c2ccc(Cn3ccnc3C(C)(C)C)c(F)c2)nc(OC)n1` [Example 35, 4′-((2-(tert-Butyl)-1H-imidazol-1-yl)methyl)-N-(2,6-dimethoxypyrimidin-4-yl)-3′-fluoro-5-isobutyl-[1,1′-biphenyl]-2-sulfonamide], the half-inhibitory concentration (IC50) in series [1] amounted to 30800 nM; in [3] (setting [7]), 119 nM. For the same molecule, the half-life at 1 μM in series [2] (setting [4]) is 0.133 h; in [2] (setting [5]), over 1 h. Besides, the Ki in series [3] (setting [6]) turned out to be 59.7 nM.
Take `CC(C)Cc1cc(-c2ccc(Cn3ccnc3C3CC3)c(F)c2)c(S(=O)(=O)Nc2ncccn2)s1` [Example 47, 3-(4-((2-Cyclopropyl-1H-imidazol-1-yl)methyl)-3-fluorophenyl)-5-isobutyl-N-(pyrimidin-2-yl)thiophene-2-sulfonamide]: the IC50 was 4900 nM in series [1]; 0.25 nM in series [3] (AT2 GraFit IC50, value in parentheses after <0.3, value printed in parentheses behind the bound <0.3); under 0.3 nM in [3] (setting [7]). In addition, the half-life at 1 μM in series [2] (setting [4]) and in [2] (setting [5]) was over 1 h each time.
`CC(C)Cc1cc(-c2ccc(Cn3ccnc3C(C)C)cc2)c(S(=O)(=O)Nc2ncccn2)s1` [Example 49, 5-Isobutyl-3-(4-((2-isopropyl-1H-imidazol-1-yl)methyl)phenyl)-N-(pyrimidin-2-yl)thiophene-2-sulfonamide]: the IC50 was 6700 nM in [1] and 1.36 nM in [3] (setting [7]). Moreover, the half-life at 1 μM in series [2] (setting [4]) and in [2] (setting [5]) was over 1 h in each case. Further, the Ki in [3] (setting [6]) came out at 0.68 nM.
For `Cc1nccn1Cc1ccc(-c2cc(CC(C)C)sc2S(=O)(=O)Nc2ncccn2)cc1` [Example 50, 5-Isobutyl-3-(4-((2-methyl-1H-imidazol-1-yl)methyl)phenyl)-N-(pyrimidin-2-yl)thiophene-2-sulfonamide], the figures for the IC50 in series [1] and in series [3] (setting [7]) were 35100 nM and 1.44 nM, respectively. Moreover, the half-life at 1 μM in series [2] (setting [4]) and in series [2] (setting [5]) was over 1 h throughout. In addition, the Ki in series [3] (setting [6]) is 0.72 nM.
For the molecule `CCc1nccn1Cc1ccc(-c2cc(CC(C)C)sc2S(=O)(=O)Nc2ncccn2)cc1` [Example 51, 3-(4-((2-Ethyl-1H-imidazol-1-yl)methyl)phenyl)-5-isobutyl-N-(pyrimidin-2-yl)thiophene-2-sulfonamide], the IC50 in series [1] came to 13900 nM; in series [3] (setting [7]), 1.28 nM. Besides, the half-life at 1 μM in series [2] (setting [4]) and in series [2] (setting [5]) was over 1 h each time. Further, the Ki in series [3] (setting [6]) worked out at 0.64 nM.

In general, IC50 refers to the concentration needed to halve the response being measured. One may read the Ki as a dissociation constant, usually derived from enzyme kinetics or from competition with a known ligand.
